Legend:
[1] = target: T1, Full length human recombinant HDAC6 (Homo sapiens, UniProt Q9UBN7); assay: In vitro histone deacetylase assay, enzymatic HDAC6 (electrophoretic mobility shift assay); type: biochemical; details: 1 nM HDAC6; 2 μM peptide substrate FAM-RHKK(Ac)—NH2; 25° C.; 12 concentrations; read-out: HDAC6 Activity Range (IC50)
T1 construct: Full length human recombinant HDAC6 and HDAC11 proteins were expressed in baculoviral system
T1 sequence (Q9UBN7 1-1215): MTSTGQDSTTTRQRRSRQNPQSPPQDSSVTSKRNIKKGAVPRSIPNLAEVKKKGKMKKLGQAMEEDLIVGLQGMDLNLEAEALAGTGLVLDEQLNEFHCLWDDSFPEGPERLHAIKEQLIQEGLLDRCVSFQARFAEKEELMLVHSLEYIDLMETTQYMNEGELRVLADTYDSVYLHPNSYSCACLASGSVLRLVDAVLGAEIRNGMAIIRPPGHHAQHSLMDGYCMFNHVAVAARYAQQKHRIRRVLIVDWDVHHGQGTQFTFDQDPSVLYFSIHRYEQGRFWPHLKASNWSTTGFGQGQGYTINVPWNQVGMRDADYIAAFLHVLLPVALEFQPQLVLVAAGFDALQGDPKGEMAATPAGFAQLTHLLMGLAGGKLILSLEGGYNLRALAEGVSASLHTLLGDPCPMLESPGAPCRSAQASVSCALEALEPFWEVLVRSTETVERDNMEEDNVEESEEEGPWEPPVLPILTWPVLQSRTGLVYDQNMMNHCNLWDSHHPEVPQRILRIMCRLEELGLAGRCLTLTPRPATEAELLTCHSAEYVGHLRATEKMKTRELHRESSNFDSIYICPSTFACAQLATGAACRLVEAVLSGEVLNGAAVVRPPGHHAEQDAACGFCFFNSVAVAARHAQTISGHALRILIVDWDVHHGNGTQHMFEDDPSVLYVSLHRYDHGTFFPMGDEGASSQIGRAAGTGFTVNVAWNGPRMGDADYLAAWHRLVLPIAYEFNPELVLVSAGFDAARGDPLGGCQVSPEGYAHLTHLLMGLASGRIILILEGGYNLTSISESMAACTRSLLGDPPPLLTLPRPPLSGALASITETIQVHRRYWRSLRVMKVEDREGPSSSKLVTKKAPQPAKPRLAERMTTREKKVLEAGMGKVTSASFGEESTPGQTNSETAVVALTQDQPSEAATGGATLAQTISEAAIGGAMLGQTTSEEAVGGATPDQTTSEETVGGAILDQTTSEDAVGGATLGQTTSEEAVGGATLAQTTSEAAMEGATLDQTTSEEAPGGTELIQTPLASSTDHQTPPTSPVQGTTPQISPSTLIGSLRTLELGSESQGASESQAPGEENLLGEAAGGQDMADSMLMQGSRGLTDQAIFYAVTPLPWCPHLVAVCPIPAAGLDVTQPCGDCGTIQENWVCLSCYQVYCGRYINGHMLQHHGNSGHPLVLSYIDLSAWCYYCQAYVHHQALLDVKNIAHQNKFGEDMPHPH
Description: (§1) The enzymatic HDAC6 and HDAC11 assays were performed using electrophoretic mobility shift assay. Full length human recombinant HDAC6 and HDAC11 proteins were expressed in baculoviral system and purified by affinity chromatography. The enzymatic reactions were assembled in 384 well plates in a total volume of 25 μL in a reaction buffer composing: 100 mM HEPES, pH 7.5, 25 mM KCl, 0.1% bovine serum albumin, 0.01% Triton X-100, 1% DMSO (from compounds) 2 μM of the fluorescently labeled peptide substrate and enzyme. The enzymes were added at a final concentration of 1 nM for HDAC6, and 10 nM for HDAC11. The peptide substrate FAM-RHKK(Ac)—NH2 was used for HDAC6, and FAM-RHKK(tri-fluor-Ac)—NH2 for HDAC11. The compounds were tested at 12 concentrations spaced by 3× dilution intervals. Negative control samples (0%-inhibition in the absence of inhibitor) and positive control samples (100%-inhibition) were assembled in replicates of four in each assay plate. The reactions were incubated at 25° C. and quenched by the addition of 45 μL of termination buffer (100 mM HEPES, pH 7.5, 0.01% Triton X-100, 0.05% SDS).
(§2) The terminated assay plates were analyzed on LabChip® 3000 microfluidic electrophoresis instrument (Perkin Elmer/Caliper Life Sciences). The fluorescence intensity of the electrophoretically separated de-acetylated product and substrate peptide was measured. Activity in each sample was determined as the product to sum ratio (PSR): P/(S+P), where P is the peak height of the product peptide and S is the peak height of the substrate peptide. Percent inhibition (Pinh) is determined using following equation:
(§3) Pinh=(PSR0%−PSRinh)/(PSR0%−PSR100%)*100, where PSRinh is the product sum ratio in the presence of inhibitor, PSR0% is the average product sum ration in the absence of inhibitor and PSR100% is the average product sum ratio in 100%-inhibition control samples. The IC50 values of inhibitors were determined by fitting the %-inhibition curves with 4 parameter dose-response model using XLfit 4 software.
(§4) As set forth in Table-26 and Table-27, below, IC5o values are defined as follows: IC50≦0.1 μM (+++); IC50>0.1 μM and ≦0.5 μM (++); IC50>0.5 μM (+).

[2] = target: T2, Full length human recombinant HDAC11 (Homo sapiens, UniProt Q96DB2); assay: In vitro histone deacetylase assay, enzymatic HDAC11 (electrophoretic mobility shift assay); type: biochemical; details: 10 nM HDAC11; 2 μM peptide substrate FAM-RHKK(tri-fluor-Ac)—NH2; 25° C.; 12 concentrations; read-out: HDAC11 Activity Range (IC50)
T2 construct: Full length human recombinant HDAC6 and HDAC11 proteins were expressed in baculoviral system
T2 sequence (Q96DB2 1-347): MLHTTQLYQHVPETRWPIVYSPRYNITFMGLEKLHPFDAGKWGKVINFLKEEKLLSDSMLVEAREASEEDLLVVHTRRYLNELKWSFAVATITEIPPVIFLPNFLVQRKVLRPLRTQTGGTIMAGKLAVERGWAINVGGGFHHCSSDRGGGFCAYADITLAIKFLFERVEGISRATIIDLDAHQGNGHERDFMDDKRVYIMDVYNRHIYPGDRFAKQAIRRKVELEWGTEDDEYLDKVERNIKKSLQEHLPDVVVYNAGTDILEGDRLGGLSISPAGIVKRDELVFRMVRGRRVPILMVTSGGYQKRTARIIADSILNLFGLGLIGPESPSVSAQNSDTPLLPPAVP
Description: as §1, §2, §3, §4

Row | SMILES | IC50 [1] | IC50 [2]
1 | COc1ccc(S(=O)(=O)N2CCC3(CCc4ccc(C(=O)NO)cc4C3)C2)cc1 (centres unmarked) [Compound I-2, N-hydroxy-1′-((4-methoxyphenyl)sulfonyl)-3,4-dihydro-1H-spiro[naphthalene-2,3′-pyrrolidine]-7-carboxamide] | ≤ 100 nM | > 500 nM
2 | COc1ccc(CN2CCC3(CCc4ccc(C(=O)NO)cc4C3)C2)cc1 (centres unmarked) [Compound I-3, N-hydroxy-1′-(4-methoxybenzyl)-3,4-dihydro-1H-spiro[naphthalene-2,3′-pyrrolidine]-7-carboxamide] | 100 to 500 nM | > 500 nM
3 | O=C(NO)c1ccc2c(c1)CC1(CC2)CCN(C2CCCCC2)C1 (centres unmarked) [Compound I-5, 1′-cyclohexyl-N-hydroxy-3,4-dihydro-1H-spiro[naphthalene-2,3′-pyrrolidine]-7-carboxamide] | ≤ 100 nM | > 500 nM
4 | O=C(NO)c1ccc2c(c1)CC1(CC2)CCN(S(=O)(=O)C2CCCCC2)C1 (centres unmarked) [Compound I-7, 1′-(cyclohexylsulfonyl)-N-hydroxy-3,4-dihydro-1H-spiro[naphthalene-2,3′-pyrrolidine]-7-carboxamide] | ≤ 100 nM | > 500 nM
5 | COc1cccc(CN2CCC3(CCc4ccc(C(=O)NO)cc4C3)C2)c1 (centres unmarked) [Compound I-14, N-hydroxy-1′-(3-methoxybenzyl)-3,4-dihydro-1H-spiro[naphthalene-2,3′-pyrrolidine]-7-carboxamide] | ≤ 100 nM | > 500 nM
6 | COc1ccccc1CN1CCC2(CCc3ccc(C(=O)NO)cc3C2)C1 (centres unmarked) [Compound I-15, N-hydroxy-1′-(2-methoxybenzyl)-3,4-dihydro-1H-spiro[naphthalene-2,3′-pyrrolidine]-7-carboxamide] | ≤ 100 nM | > 500 nM
7 | O=C(NO)c1ccc2c(c1)C[C@]1(CC2)CC(=O)N(C2CCC2)C1 [Compound I-150, (R)-1′-cyclobutyl-N-hydroxy-5′-oxo-3,4-dihydro-1H-spiro[naphthalene-2,3′-pyrrolidine]-7-carboxamide] | ≤ 100 nM | 
8 | O=C(NO)c1ccc2c(c1)C[C@@]1(CC2)CC(=O)N(C2CCC2)C1 [Compound I-151, (S)-1′-cyclobutyl-N-hydroxy-5′-oxo-3,4-dihydro-1H-spiro[naphthalene-2,3′-pyrrolidine]-7-carboxamide] | ≤ 100 nM | 
9 | O=C(NO)c1ccc2c(c1)C[C@]1(CC2)CC(=O)N(C2CCCC2)C1 [Compound I-152, (R)-1′-cyclopentyl-N-hydroxy-5′-oxo-3,4-dihydro-1H-spiro[naphthalene-2,3′-pyrrolidine]-7-carboxamide] | ≤ 100 nM | 
10 | O=C(NO)c1ccc2c(c1)C[C@@]1(CC2)CC(=O)N(C2CCCC2)C1 [Compound I-153, (S)-1′-cyclopentyl-N-hydroxy-5′-oxo-3,4-dihydro-1H-spiro[naphthalene-2,3′-pyrrolidine]-7-carboxamide] | ≤ 100 nM | 

More lines, now with the values ahead:

Row | IC50 [1] | IC50 [2] | SMILES
11 | ≤ 100 nM | > 500 nM | COc1ccc(C(=O)N2CCC3(CCc4ccc(C(=O)NO)cc4C3)C2)cc1 (centres unmarked) [Compound I-1, N-hydroxy-1′-(4-methoxybenzoyl)-3,4-dihydro-1H-spiro[naphthalene-2,3′-pyrrolidine]-7-carboxamide]
12 | ≤ 100 nM | > 500 nM | O=C(NO)c1ccc2c(c1)CC1(CC2)CCN(C(=O)C2CCCCC2)C1 (centres unmarked) [Compound I-4, 1′-(cyclohexanecarbonyl)-N-hydroxy-3,4-dihydro-1H-spiro[naphthalene-2,3′-pyrrolidine]-7-carboxamide]
13 | ≤ 100 nM | 100 to 500 nM | O=C(NO)c1ccc2c(c1)CC1(CC2)CCN(C(=O)Nc2ccccc2)C1 (centres unmarked) [Compound I-6, N7-hydroxy-N1′-phenyl-3,4-dihydro-1H-spiro[naphthalene-2,3′-pyrrolidine]-1′,7-dicarboxamide]
14 | 100 to 500 nM | > 500 nM | O=C(NO)c1ccc2c(c1)CC1(CCNC1)CC2 (centres unmarked) [Compound I-8, N-hydroxy-3,4-dihydro-1H-spiro[naphthalene-2,3′-pyrrolidine]-7-carboxamide]
15 | 100 to 500 nM | > 500 nM | CN1CCC2(CCc3ccc(C(=O)NO)cc3C2)C1 (centres unmarked) [Compound I-9, N-hydroxy-1′-methyl-3,4-dihydro-1H-spiro[naphthalene-2,3′-pyrrolidine]-7-carboxamide]
16 | ≤ 100 nM | > 500 nM | O=CN1CCC2(CCc3ccc(C(=O)NO)cc3C2)C1 (centres unmarked) [Compound I-10, 1′-formyl-N-hydroxy-3,4-dihydro-1H-spiro[naphthalene-2,3′-pyrrolidine]-7-carboxamide]
17 | 100 to 500 nM | > 500 nM | CC(C)N1CCC2(CCc3ccc(C(=O)NO)cc3C2)C1 (centres unmarked) [Compound I-11, N-hydroxy-1′-isopropyl-3,4-dihydro-1H-spiro[naphthalene-2,3′-pyrrolidine]-7-carboxamide]
18 | ≤ 100 nM | > 500 nM | CC(=O)N1CCC2(CCc3ccc(C(=O)NO)cc3C2)C1 (centres unmarked) [Compound I-12, 1′-acetyl-N-hydroxy-3,4-dihydro-1H-spiro[naphthalene-2,3′-pyrrolidine]-7-carboxamide]
19 | ≤ 100 nM | > 500 nM | CS(=O)(=O)N1CCC2(CCc3ccc(C(=O)NO)cc3C2)C1 (centres unmarked) [Compound I-13, N-hydroxy-1′-(methylsulfonyl)-3,4-dihydro-1H-spiro[naphthalene-2,3′-pyrrolidine]-7-carboxamide]
20 | ≤ 100 nM | > 500 nM | O=C(NO)c1ccc2c(c1)C[C@@]1(CC2)CCN(c2ccccc2)C1 [Compound I-16, (S)—N-hydroxy-1′-phenyl-3,4-dihydro-1H-spiro[naphthalene-2,3′-pyrrolidine]-7-carboxamide]
21 | ≤ 100 nM | > 500 nM | O=C(NO)c1ccc2c(c1)C[C@]1(CC2)CCN(c2ccccc2)C1 [Compound I-17, (R)—N-hydroxy-1′-phenyl-3,4-dihydro-1H-spiro[naphthalene-2,3′-pyrrolidine]-7-carboxamide]
